Experimental data as given in the NIST ThermoML archive (doi:10.1016/j.jct.2014.02.022).

Assays:
[1] = mn = molality of the nth substance listed, in mol/kg; settings: 101 kPa, Liquid; for viscosity: Capillary tube (Ostwald / Ubbelohde) method; for mass density: Vibrating tube method
[2] = 101 kPa, Liquid; for viscosity: Capillary tube (Ostwald / Ubbelohde) method; for mass density: Vibrating tube method

CO [methanol] + Cc1ncc(CO)c(CO)c1O.Cl
[1], m2 = 0
Settings	mass density [kg/m3]	viscosity [mPa·s]
298.15 K	786.67	0.543
308.15 K	777.18	0.4708
318.15 K	767.75	0.4194

Cc1ncc(CO)c(CO)c1O.Cl [5-hydroxy-6-methyl-3,4-pyridinedimethanol hydrochloride] + CO
[1]
Settings	mass density, 298.15 K [kg/m3]	mass density, 308.15 K [kg/m3]	mass density, 318.15 K [kg/m3]	viscosity, 298.15 K [mPa·s]	viscosity, 308.15 K [mPa·s]	viscosity, 318.15 K [mPa·s]
m1 = 0.0127	789.07	778.65	769.25	0.5562	0.4853	0.4275
m1 = 0.0254	789.94	779.85	770.18	0.5621	0.4955	0.4468
m1 = 0.0382	790.86	780.83	771.13	0.5712	0.5034	0.464

CO [methanol]
[2]
Settings	mass density [kg/m3]	viscosity [mPa·s]
298.15 K	786.67	0.543
308.15 K	777.18	0.4708
318.15 K	767.75	0.4194
